≈ marks a conversion by molar mass, not a printed value. Positions of bridges follow the written chain, without caps; N, C: chain ends. Non-standard residues stand in square brackets, D forms with d. Residues, ends and D or L forms follow the SMILES beside them. *: point of attachment. X3 = CCCCCCCCCCCC(O[C@@H]1O[C@@H](C)[C@H](O)[C@@H](O)[C@H]1O)C(O)C(=O)*; X2 = OC[C@H]1O[C@@H](*)[C@@H](O)[C@@H](O)[C@@H]1O; NMeT = CN[C@H](C(=O)O)[C@@H](C)O; X1 = CCCCCCCCCCCC(O)C(O)C(=O)*; Dhb = C/C=C(\N)C(=O)O
How the values were obtained:
Type in all cases: functional
[1] = test system: Candida albicans; test: Antifungal activity against Candida albicans SC 5314
[2] = test system: Cryptococcus neoformans; test: Antifungal activity against Cryptococcus neoformans DSM 6973
[3] = test system: Cryptococcus neoformans; test: Antifungal activity against Cryptococcus neoformans CBS 6955
[4] = test system: Candida tropicalis; test: Antifungal activity against Candida tropicalis ATCC 750
[5] = test system: Pichia kudriavzevii; test: Antifungal activity against Candida krusei ATCC 6258
[6] = test system: Pichia kudriavzevii; test: Antifungal activity against Candida krusei ATCC 90878
[7] = test system: Candida albicans; test: Antifungal activity against Candida albicans ATCC 90028
[8] = test system: Candida parapsilosis; test: Antifungal activity against Candida parapsilosis ATCC 22019; settings: Lodderomyces parapsilosis
[9] = test system: Cryptococcus neoformans; test: Antifungal activity against Cryptococcus neoformans ATCC 90112
[10] = test system: Cryptococcus neoformans; test: Antifungal activity against Cryptococcus neoformans ATCC 34543
[11] = test system: Nakaseomyces glabratus; test: Antifungal activity against Candida glabrata ATCC 90030
[12] = test system: Candida albicans; test: Antifungal activity against Candida albicans ATCC 44374
[13] = test system: Candida tropicalis; test: Antifungal activity against Candida tropicalis ATCC 90874
[14] = test system: Nakaseomyces glabratus; test: Antifungal activity against Candida glabrata DSM 11950
[15] = test system: Candida albicans; test: Antifungal activity against Candida albicans ATCC 24433
[16] = test system: Candida parapsilosis; test: Antifungal activity against Candida parapsilosis ATCC 90018; settings: Lodderomyces parapsilosis

Row | SMILES | MFC [1] [µg/mL] | MIC [1] [µg/mL] | MFC [2] [µg/mL] | MIC [2] [µg/mL] | MFC [3] [µg/mL] | MIC [3] [µg/mL] | MFC [4] [µg/mL] | MIC [4] [µg/mL] | MFC [5] [µg/mL] | MIC [5] [µg/mL] | MFC [6] [µg/mL] | MIC [6] [µg/mL] | MFC [7] [µg/mL] | MIC [7] [µg/mL] | MFC [8] [µg/mL] | MIC [8] [µg/mL] | MFC [9] [µg/mL] | MIC [9] [µg/mL] | MFC [10] [µg/mL] | MIC [10] [µg/mL] | other results
1 | C/C=C1\NC(=O)[C@H](Cc2ccc(O)cc2)NC(=O)[C@H]([C@@H](C)O)NC(=O)[C@@H](NC(=O)[C@@H](NC(=O)C(O)C(CCCCCCCCCCC)O[C@@H]2O[C@@H](C)[C@H](O)[C@@H](O)[C@H]2O)[C@@H](C)O)[C@@H](C)OC(=O)[C@H](CCC(N)=O)NC(=O)[C@H]([C@@H](C)O[C@@H]2O[C@H](CO)[C@@H](O)[C@H](O)[C@@H]2O)N(C)C(=O)CNC(=O)[C@H](CCC(N)=O)NC1=O (some centres undefined) (X3-TTTY[Dhb]QG[NMeT](X2)Q; ester 2-C) | 8 (≈ 5.23 µM) | 8 (≈ 5.23 µM) | 8 (≈ 5.23 µM) | 8 (≈ 5.23 µM) | 8 (≈ 5.23 µM) | 8 (≈ 5.23 µM) | 16 (≈ 10.5 µM) | 16 (≈ 10.5 µM) | 16 (≈ 10.5 µM) | 8 (≈ 5.23 µM) | 16 (≈ 10.5 µM) | 16 (≈ 10.5 µM) | 8 (≈ 5.23 µM) | 8 (≈ 5.23 µM) | 16 (≈ 10.5 µM) | 8 (≈ 5.23 µM) | 8 (≈ 5.23 µM) | 8 (≈ 5.23 µM) | 8 (≈ 5.23 µM) | 8 (≈ 5.23 µM) | MFC [11]: 16 µg/mL (≈ 10.5 µM); MIC [11]: 16 µg/mL (≈ 10.5 µM); MFC [12]: 16 µg/mL (≈ 10.5 µM); MIC [12]: 8 µg/mL (≈ 5.23 µM); MFC [13]: 16 µg/mL (≈ 10.5 µM); MIC [13]: 8 µg/mL (≈ 5.23 µM); MFC [14]: 16 µg/mL (≈ 10.5 µM); MIC [14]: 16 µg/mL (≈ 10.5 µM); MFC [15]: 16 µg/mL (≈ 10.5 µM); MIC [15]: 16 µg/mL (≈ 10.5 µM); MFC [16]: > 16 µg/mL; MIC [16]: 16 µg/mL (≈ 10.5 µM)
2 | C/C=C1\NC(=O)[C@H](Cc2ccc(O)cc2)NC(=O)[C@H]([C@@H](C)O)NC(=O)[C@@H](NC(=O)[C@@H](NC(=O)C(O)C(O)CCCCCCCCCCC)[C@@H](C)O)[C@@H](C)OC(=O)[C@H](CCC(N)=O)NC(=O)[C@H]([C@@H](C)O[C@@H]2O[C@H](CO)[C@@H](O)[C@H](O)[C@@H]2O)N(C)C(=O)CNC(=O)[C@H](CCC(N)=O)NC1=O (some centres undefined) [HASSALLIDIN A] (X1-TTTY[Dhb]QG[NMeT](X2)Q; ester 2-C) | 8 (≈ 5.79 µM) | 4 (≈ 2.89 µM) | 8 (≈ 5.79 µM) | 4 (≈ 2.89 µM) | 8 (≈ 5.79 µM) | 4 (≈ 2.89 µM) | 4 (≈ 2.89 µM) | 4 (≈ 2.89 µM) | 8 (≈ 5.79 µM) | 8 (≈ 5.79 µM) | 8 (≈ 5.79 µM) | 8 (≈ 5.79 µM) | 4 (≈ 2.89 µM) | 4 (≈ 2.89 µM) | 8 (≈ 5.79 µM) | 8 (≈ 5.79 µM) | 8 (≈ 5.79 µM) | 4 (≈ 2.89 µM) | 8 (≈ 5.79 µM) | 4 (≈ 2.89 µM) | MFC [11]: 8 µg/mL (≈ 5.79 µM); MIC [11]: 8 µg/mL (≈ 5.79 µM); MFC [12]: 4 µg/mL (≈ 2.89 µM); MIC [12]: 4 µg/mL (≈ 2.89 µM); MFC [13]: 8 µg/mL (≈ 5.79 µM); MIC [13]: 8 µg/mL (≈ 5.79 µM); MFC [14]: 8 µg/mL (≈ 5.79 µM); MIC [14]: 8 µg/mL (≈ 5.79 µM); MFC [15]: 4 µg/mL (≈ 2.89 µM); MIC [15]: 4 µg/mL (≈ 2.89 µM); MFC [16]: 16 µg/mL (≈ 11.6 µM); MIC [16]: 8 µg/mL (≈ 5.79 µM)
